The values below come from US10967035B1, “Aquaculture feed additive” (HP Ingredients Corp., priority 2020, dated 2021).

For assay [1], the system named is Piscirickettsia salmonis strain type LF-89. The class given is cell-based.
In assay [2] the test system is CD8+. The assay is described as follows: RT-qPCR of CD8+ expression in anterior kidney of fish fed supplemented diets. The class given is in vivo, rainbow trout. Particulars: diet 15 days. The protocol: (§1) We compared several aquaculture diets suitable for use in commercial aquaculture. The standard diet was […] commercially available from Salmones […]., Los Angeles, Chile. […] Each diet was administered to each of three (3) cages for 15 days. […] We extracted total RNA from each sample, and then quantified the expression of IL-12 and CD8^+ using real-time quantitative PCR, according to the standardized protocols of the Aquatic Organisms Biotechnology Lab of the Universidad Austral de Chile.

The subject of assay [3] is IL-12. As to the kind of experiment: RT-qPCR of IL-12 expression in anterior kidney of fish fed supplemented diets. The assay is classed as in vivo, rainbow trout. Particulars: diet 15 days; NC 0.5 kg/ton, AP 1 kg/ton of feed. The protocol:
as §1
In general terms: Real-time PCR tracks product formation cycle by cycle.

As to `CS(=O)(=O)c1ccc([C@@H](O)[C@@H](CF)NC(=O)C(Cl)Cl)cc1` [florfenicol], in assay [1] (64, 32 and 16 μg/mL), the “mean inhibition in bacterial growth” value is 5 fold.

Take `C=C1CC[C@@H]2[C@](C)(CO)[C@H](O)CC[C@@]2(C)[C@@H]1C/C=C1/C(=O)OC[C@H]1O` [AP, andrographolide]: the “CD8+ expression in anterior kidney compared to control group” value in assay [2] (NC 0.5 kg/ton, AP 1 kg/ton of feed) is recorded as “increase the expression of CD8+”. The “stimulation of the immune activity markers compared to control” value in assay [2] (in vivo pilot test) came to 2.0. In addition, the “inhibitory effect on bacterial growth” value in assay [1] (at the analyzed concentrations (0.98 to 500)) is reported as “no significant differences in the inhibitory effect”. The “IL-12 expression in anterior kidney compared to control group” value in assay [3] is given as “depress the expression of IL-12”.
